Measured values reported in ChEMBL document CHEMBL6153099, “Fatuamide A, a Hybrid PKS/NRPS Metallophore from a Leptolyngbya sp. Marine Cyanobacterium Collected in American Samoa” (J Nat Prod, 2025).
The source made the active and inactive calls. The rule behind the calls is not given here.

Legend:
RAW264.7 = test: Antiinflammatory activity in LPS-induced mouse RAW264.7 cells assessed as reduction in NO production at 10 to 30 microg/ml preincubated for 24 hrs by Griess reagent based assay; format: functional, cell-based; conditions: dose 10-30 µg/ml
NCI-H460 = test: Cytotoxicity against human NCI-H460 cells at 2 to 60000 nM incubated for 48 hrs by MTT assay; format: functional, cell-based; conditions: dose 2-60000 nM

**Q.** `C[C@H](C[C@@H](C)CCC(=O)N[C@@H](Cc1ccccc1)[C@H](O)C[C@H](O)CC(=O)N[C@@H](Cc1ccccc1)[C@H](O)CC(=O)NCC(=O)O)C[C@@H]1CSC(c2ccccc2O)=N1` was tested. Which Activity (RAW264.7) did it give?
**A.** inactive

**Q.** What about the Activity (NCI-H460) of the same compound?
**A.** Active
